ChEMBL document CHEMBL1201862, “PubChem BioAssay data set” (2004)
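Test compounds were applied to cells in 96-well plates for 48 hours at 5 doses. GI50 = concentration required for 50% inhibition of growth.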 Activity calls are given as the source filed them. Cut-off read from the data, not from the text of the source: active = GI50 up to about 1.1 µM and inactive = higher.

Key:
Test in all cases: inhibition of tumour cell growth, NCI panel, 48 h
UACC-62 = test system: UACC-62
MDA-N = test system: MDA-N
Hs-578T = test system: Hs-578T
NCI-H23 = test system: NCI-H23
NCI/ADR-RES = test system: NCI/ADR-RES
OVCAR-5 = test system: OVCAR-5
SF-268 = test system: SF-268
M14 = test system: M14
OVCAR-4 = test system: OVCAR-4
SK-MEL-5 = test system: SK-MEL-5
NCI-H226 = test system: NCI-H226
SK-MEL-2 = test system: SK-MEL-2
T47D = test system: T47D
HT-29 = test system: HT-29
SR = test system: SR
U-251 = test system: U-251
BT-549 = test system: BT-549
MDA-MB-231 = test system: MDA-MB-231
SF-539 = test system: SF-539
SK-MEL-28 = test system: SK-MEL-28

SMILES	GI50 (UACC-62)	GI50 (MDA-N)	GI50 (Hs-578T)	GI50 (NCI-H23)	GI50 (NCI/ADR-RES)	GI50 (OVCAR-5)	GI50 (SF-268)	GI50 (M14)	GI50 (OVCAR-4)	GI50 (SK-MEL-5)	GI50 (NCI-H226)	GI50 (SK-MEL-2)	GI50 (T47D)	GI50 (HT-29)	GI50 (SR)	GI50 (U-251)	GI50 (BT-549)	GI50 (MDA-MB-231)	GI50 (SF-539)	GI50 (SK-MEL-28)
COc1c2ccsc2c(OC)c2ccsc12	> 100 µM (inactive)	> 100 µM (inactive)	71.4 µM (inactive)	> 100 µM (inactive)	> 100 µM (inactive)	> 100 µM (inactive)	> 100 µM (inactive)	> 100 µM (inactive)	> 100 µM (inactive)	> 100 µM (inactive)	> 100 µM (inactive)	> 100 µM (inactive)	> 100 µM (inactive)	> 100 µM (inactive)	> 100 µM (inactive)	95.7 µM (inactive)	> 100 µM (inactive)	> 100 µM (inactive)	26.1 µM (inactive)	> 100 µM (inactive)
C[C@@H]1CCC2[C@@H](C)[C@H](O[C@H]3O[C@@H]4O[C@@]5(C)CCC6[C@H](C)CCC([C@H]3C)[C@]64OO5)O[C@@H]3O[C@@]4(C)CCC1[C@@]23OO4 (some centres undefined)	0.0805 µM (active)	0.136 µM (active)	0.39 µM (active)	0.0415 µM (active)	0.192 µM (active)	0.352 µM (active)	3.44 µM (inactive)	0.475 µM (active)	0.27 µM (active)	0.09 µM (active)	2.11 µM (inactive)	0.401 µM (active)	0.0293 µM (active)	0.0491 µM (active)	0.0318 µM (active)	0.0637 µM (active)	0.0553 µM (active)	0.385 µM (active)	0.264 µM (active)	5.69 µM (inactive)
C/C=C/COc1cc(NC(=S)c2ccoc2C)ccc1OC	> 100 µM (inactive)	> 100 µM (inactive)	34 µM (inactive)	> 100 µM (inactive)	39.4 µM (inactive)	> 100 µM (inactive)	44.3 µM (inactive)	> 100 µM (inactive)	23 µM (inactive)	48.9 µM (inactive)	> 100 µM (inactive)	> 100 µM (inactive)	43.3 µM (inactive)	> 100 µM (inactive)	> 100 µM (inactive)	51.4 µM (inactive)	> 100 µM (inactive)	29.5 µM (inactive)	76.7 µM (inactive)	> 100 µM (inactive)
N=C(/C=C/c1ccc(-c2cn3cc(/C=C/C(=N)N4CCCC4)ccc3n2)cc1)N1CCCC1	> 100 µM (inactive)	> 100 µM (inactive)	56.5 µM (inactive)	> 100 µM (inactive)	> 100 µM (inactive)	> 100 µM (inactive)	> 100 µM (inactive)	> 100 µM (inactive)	> 100 µM (inactive)	> 100 µM (inactive)	> 100 µM (inactive)	> 100 µM (inactive)	> 100 µM (inactive)	–	> 100 µM (inactive)	50.2 µM (inactive)	> 100 µM (inactive)	> 100 µM (inactive)	47.3 µM (inactive)	> 100 µM (inactive)
N=C(N)NS(=O)(=O)c1ccc(NNc2c3ccccc3nc3c(C(=O)Nc4ccc(S(N)(=O)=O)cc4)cccc23)cc1	18.7 µM (inactive)	76.6 µM (inactive)	18.4 µM (inactive)	51.1 µM (inactive)	> 100 µM (inactive)	76 µM (inactive)	16.8 µM (inactive)	83.4 µM (inactive)	51.2 µM (inactive)	27.3 µM (inactive)	92 µM (inactive)	9.02 µM (inactive)	4.49 µM (inactive)	23.4 µM (inactive)	5.37 µM (inactive)	7.59 µM (inactive)	19.5 µM (inactive)	27.9 µM (inactive)	26.6 µM (inactive)	68.1 µM (inactive)
